From ChEMBL document CHEMBL5537120 (Eur J Med Chem, 2024)
The source made the active and inactive calls. The calls are words filed in the database; no cut-off is given here. Where a SMILES comes first, the peptide text is derived from it. Bridges are numbered along the chain shown (N, C = ends).

Columns and labels:
[1] = target: Angiotensin-converting enzyme 2 (Homo sapiens, UniProt Q9BYF1); assay: Binding affinity to ACE2 (unknown origin) by MST analysis
[2] = target: Neuropilin-1 (Homo sapiens, UniProt O14786); assay: Binding affinity to NRP1 (unknown origin) by MST analysis
Neuropilin-1, sequence (O14786 whole entry): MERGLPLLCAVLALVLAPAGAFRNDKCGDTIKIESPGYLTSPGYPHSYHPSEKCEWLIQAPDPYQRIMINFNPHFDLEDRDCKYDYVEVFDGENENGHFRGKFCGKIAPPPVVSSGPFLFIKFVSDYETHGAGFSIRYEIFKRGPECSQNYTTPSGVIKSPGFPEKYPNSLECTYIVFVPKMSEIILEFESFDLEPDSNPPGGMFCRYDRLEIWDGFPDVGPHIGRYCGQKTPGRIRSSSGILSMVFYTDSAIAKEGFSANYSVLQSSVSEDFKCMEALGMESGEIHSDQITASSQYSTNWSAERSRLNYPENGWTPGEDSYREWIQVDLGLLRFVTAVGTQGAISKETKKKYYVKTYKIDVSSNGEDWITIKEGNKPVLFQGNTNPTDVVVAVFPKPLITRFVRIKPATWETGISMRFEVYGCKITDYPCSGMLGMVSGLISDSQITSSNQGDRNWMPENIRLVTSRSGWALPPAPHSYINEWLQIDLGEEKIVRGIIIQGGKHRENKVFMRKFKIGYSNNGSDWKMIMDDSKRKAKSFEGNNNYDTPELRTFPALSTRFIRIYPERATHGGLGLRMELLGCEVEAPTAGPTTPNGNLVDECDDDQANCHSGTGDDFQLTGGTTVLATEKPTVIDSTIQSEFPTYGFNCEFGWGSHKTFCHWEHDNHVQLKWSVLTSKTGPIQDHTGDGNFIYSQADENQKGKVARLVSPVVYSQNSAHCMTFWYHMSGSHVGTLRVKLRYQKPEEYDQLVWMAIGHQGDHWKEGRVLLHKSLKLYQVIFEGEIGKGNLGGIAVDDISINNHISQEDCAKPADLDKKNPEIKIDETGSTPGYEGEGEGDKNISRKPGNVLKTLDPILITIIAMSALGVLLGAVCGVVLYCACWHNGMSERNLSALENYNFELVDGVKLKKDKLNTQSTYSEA

[3] = system: SARS-CoV-2; assay: Antiviral activity against HIV-1 pseudotyped SARS-CoV-2 Omicron BA.2.75 infected in HEK293T cells expressing ACE2/NRP1 assessed as reduction in viral replication at 1.6 uM pretreated with cells for 1 hr followed by viral infection and measured after 2 days by firefly luciferase reporter gene assay; format: functional, organism-based; settings: Severe acute respiratory syndrome coronavirus 2, time 49.0 hrs
[4] = system: SARS-CoV-2; assay: microbe, parasite or virus in culture; settings: Severe acute respiratory syndrome coronavirus 2, Omicron BA.2.75, HEK-293T, 49 h, read-out: INH
[5] = system: SARS-CoV-2; assay: microbe, parasite or virus in culture; settings: Severe acute respiratory syndrome coronavirus 2, Omicron BA.2.75, HEK-293T
Description: Antiviral activity against HIV-1 pseudotyped SARS-CoV-2 Omicron BA.2.75 infected in HEK293T cells expressing ACE2/NRP1 assessed as reduction in infection rate pretreated with cells for 1 hr followed by viral infection and measured after 2 days by firefly luciferase reporter gene assay

[6] = system: SARS-CoV-2; assay: microbe, parasite or virus in culture; settings: Severe acute respiratory syndrome coronavirus 2, Alpha, HEK-293T
Description: Antiviral activity against HIV-1 pseudotyped SARS-CoV-2 Alpha infected in HEK293T cells expressing ACE2/NRP1 assessed as reduction in infection rate pretreated with cells for 1 hr followed by viral infection and measured after 2 days by firefly luciferase reporter gene assay

[7] = system: SARS-CoV-2; assay: microbe, parasite or virus in culture; settings: Severe acute respiratory syndrome coronavirus 2, Beta, HEK-293T
Description: Antiviral activity against HIV-1 pseudotyped SARS-CoV-2 Beta infected in HEK293T cells expressing ACE2/NRP1 assessed as reduction in infection rate pretreated with cells for 1 hr followed by viral infection and measured after 2 days by firefly luciferase reporter gene assay

[8] = system: SARS-CoV-2; assay: microbe, parasite or virus in culture; settings: Severe acute respiratory syndrome coronavirus 2, Delta, HEK-293T
Description: Antiviral activity against HIV-1 pseudotyped SARS-CoV-2 Delta infected in HEK293T cells expressing ACE2/NRP1 assessed as reduction in infection rate pretreated with cells for 1 hr followed by viral infection and measured after 2 days by firefly luciferase reporter gene assay

Angiotensin-converting enzyme 2, sequence (Q9BYF1 whole entry): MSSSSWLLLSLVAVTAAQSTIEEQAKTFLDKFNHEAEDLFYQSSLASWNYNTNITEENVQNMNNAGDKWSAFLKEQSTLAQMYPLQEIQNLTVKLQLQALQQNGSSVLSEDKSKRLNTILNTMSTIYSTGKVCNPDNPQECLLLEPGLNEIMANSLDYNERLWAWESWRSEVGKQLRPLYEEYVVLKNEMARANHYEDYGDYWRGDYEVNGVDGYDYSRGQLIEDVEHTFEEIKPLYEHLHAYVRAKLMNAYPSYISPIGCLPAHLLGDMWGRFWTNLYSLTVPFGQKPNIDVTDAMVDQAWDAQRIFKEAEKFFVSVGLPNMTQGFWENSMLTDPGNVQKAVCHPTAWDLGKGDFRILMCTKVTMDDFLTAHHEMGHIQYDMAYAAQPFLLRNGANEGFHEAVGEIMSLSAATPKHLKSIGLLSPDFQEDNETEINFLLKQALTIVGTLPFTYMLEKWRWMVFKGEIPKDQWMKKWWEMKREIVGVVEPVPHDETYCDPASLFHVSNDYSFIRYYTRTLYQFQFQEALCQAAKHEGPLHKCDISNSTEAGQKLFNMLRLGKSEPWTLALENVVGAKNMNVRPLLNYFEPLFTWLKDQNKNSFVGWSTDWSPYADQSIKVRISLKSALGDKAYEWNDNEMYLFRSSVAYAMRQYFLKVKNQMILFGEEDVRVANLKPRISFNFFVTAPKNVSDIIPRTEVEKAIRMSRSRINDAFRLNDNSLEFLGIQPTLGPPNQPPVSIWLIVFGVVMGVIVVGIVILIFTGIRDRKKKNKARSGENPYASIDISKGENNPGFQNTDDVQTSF

Structure (SMILES) | Kd [1] | Kd [2] [nM] | Activity [3] | inhibition at 1.6 µM [4] [%] | EC50 [5] [nM] | EC50 [6] [nM] | EC50 [7] [nM] | EC50 [8] [nM]
CSCC[C@@H](NC(=O)CNC(=O)CNC(=O)[C@@H](Cc1ccc(O)cc1)NC(=O)[C@@H](Cc1c[nH]c2ccccc12)NC(=O)CNC(=O)[C@@H](Cc1ccc(O)cc1)NC(=O)[C@@H](Cc1ccccc1)NC(=O)[C@@H](Cc1ccccc1)NC(=O)Cc1ccc2ccccc2c1)C(=O)N[C@H](CCC(=O)O)C(=O)N[C@H](CCCCN)C(=O)N[C@H](CC(C)C)C(=O)N[C@H](CC(C)C)C(=O)N[C@H](CCCNC(=N)N)C(=O)NCC(=O)NCC(=O)N[C@H](CCCNC(=N)N)C(=O)NCC(=O)N[C@H](CCC(=O)O)C(=O)N[C@H](CCCNC(=N)N)C(=O)N1CCC[C@@H]1C(=O)N1CCC[C@@H]1C(=O)N[C@H](CCCNC(=N)N)C(=O)O | Not Active | 106 |  |  |  |  |  | 
CC(C)C[C@@H]1NC(=O)[C@@H]2CCCN2C(=O)[C@H](CO)NC(=O)[C@@H](NC(=O)[C@H](Cc2cnc[nH]2)NC(=O)[C@H](CO)NC(=O)[C@H](Cc2ccccc2)NC(=O)[C@H](CC(=O)O)NC(=O)CN)CSSC[C@@H](C(=O)N[C@H](C(=O)N[C@@H](Cc2ccc(O)cc2)C(=O)N2CCC[C@H]2C(=O)N[C@@H](CC(=O)O)C(=O)N2CCC[C@H]2C(=O)N[C@@H](CCC(=O)O)C(=O)NCC(=O)NCC(=O)NCC(=O)N[C@@H](CCCCN)C(=O)N2CCC[C@H]2C(=O)N[C@@H](C)C(=O)N[C@@H](CCCNC(=N)N)C(=O)N2CCC[C@H]2C(=O)N[C@@H](C)C(=O)N[C@@H](CCCNC(=N)N)C(=O)O)[C@@H](C)O)NC(=O)[C@H](CCCCN)NC(=O)[C@H](Cc2ccccc2)NC(=O)[C@H](Cc2c[nH]c3ccccc23)NC(=O)[C@@H]2CCCN2C(=O)[C@H](Cc2ccccc2)NC(=O)[C@H](Cc2ccc(O)cc2)NC(=O)[C@H](CCCNC(=N)N)NC1=O (H-GDFSHCSPLRYFPWFKCTYPDPEGGGKPARPAR-OH; disulfide 6-17) |  | 13.4 | Active | 70 | 450 | 2730 | 2190 | 1200
CC[C@H](C)[C@H](NC(=O)[C@H](Cc1ccccc1)NC(=O)[C@H](CCCCN)NC(=O)[C@H](CC(=O)O)NC(=O)CN)C(=O)N[C@H]1CSSC[C@@H](C(=O)N[C@@H](CC(N)=O)C(=O)N[C@@H](Cc2c[nH]c3ccccc23)C(=O)N[C@@H](Cc2ccc(O)cc2)C(=O)N[C@@H](CC(=O)O)C(=O)N2CCC[C@H]2C(=O)N[C@@H](CCC(=O)O)C(=O)NCC(=O)NCC(=O)NCC(=O)N[C@@H](CCCCN)C(=O)NCC(=O)N[C@@H](CC(N)=O)C(=O)N[C@@H](CCCNC(=N)N)C(=O)N2CCC[C@H]2C(=O)N2CCC[C@H]2C(=O)N[C@@H](CCCNC(=N)N)C(=O)O)NC(=O)[C@H](Cc2ccccc2)NC(=O)[C@H](CCCCN)NC(=O)[C@H](Cc2c[nH]c3ccccc23)NC(=O)[C@@H]2CCCN2C(=O)[C@H](CCCCN)NC(=O)[C@H](CC(=O)O)NC(=O)[C@H](CCCNC(=N)N)NC(=O)[C@H]([C@@H](C)CC)NC(=O)[C@@H]2CCCN2C(=O)[C@H](CC(C)C)NC1=O (H-GDKFICLPIRDKPWKFCNWYDPEGGGKGNRPPR-OH; disulfide 6-17) |  | 96.7 | Active |  |  |  |  | 
CC(C)C[C@H](NC(=O)[C@H](CC(=O)O)NC(=O)CN)C(=O)N[C@@H](Cc1cnc[nH]1)C(=O)N[C@@H](C)C(=O)N[C@H]1CSSC[C@@H](C(=O)N[C@H](C(=O)N[C@@H](CC(C)C)C(=O)NCC(=O)N[C@@H](CC(=O)O)C(=O)N2CCC[C@H]2C(=O)N[C@@H](CCC(=O)O)C(=O)NCC(=O)NCC(=O)NCC(=O)N[C@@H](CCCNC(=N)N)C(=O)N[C@@H](CO)C(=O)N2CCC[C@H]2C(=O)N[C@@H](CCCNC(=N)N)C(=O)N[C@@H](CCCNC(=N)N)C(=O)N[C@@H](C)C(=O)N[C@@H](CCCNC(=N)N)C(=O)O)[C@@H](C)O)NC(=O)[C@H](C)NC(=O)[C@H](Cc2c[nH]c3ccccc23)NC(=O)[C@H](Cc2c[nH]c3ccccc23)NC(=O)[C@@H]2CCCN2C(=O)[C@H](CC(=O)O)NC(=O)CNC(=O)[C@H](CCCNC(=N)N)NC(=O)[C@H](C(C)C)NC(=O)[C@@H]2CCCN2C(=O)[C@H](CCCNC(=N)N)NC1=O (H-GDLHACRPVRGDPWWACTLGDPEGGGRSPRRAR-OH; disulfide 6-17) |  | 17.6 | Active |  |  |  |  | 
CC[C@H](C)[C@@H]1NC(=O)[C@@H]2CCCN2C(=O)[C@H](CO)NC(=O)[C@@H](NC(=O)[C@@H](NC(=O)[C@H](Cc2ccc(O)cc2)NC(=O)[C@H](CCCNC(=N)N)NC(=O)[C@H](CC(=O)O)NC(=O)CN)[C@@H](C)O)CSSC[C@@H](C(=O)N[C@@H](CC(=O)O)C(=O)N[C@@H](CC(C)C)C(=O)NCC(=O)N[C@@H](CC(=O)O)C(=O)N2CCC[C@H]2C(=O)N[C@@H](CCC(=O)O)C(=O)NCC(=O)NCC(=O)NCC(=O)N[C@@H](CCCCN)C(=O)N[C@@H](C)C(=O)N2CCC[C@H]2C(=O)N[C@@H](CCCNC(=N)N)C(=O)N[C@@H](CCCNC(=N)N)C(=O)N[C@@H](C)C(=O)N[C@@H](CCCNC(=N)N)C(=O)O)NC(=O)[C@H](CCCNC(=N)N)NC(=O)[C@H](Cc2c[nH]c3ccccc23)NC(=O)[C@H](Cc2c[nH]c3ccccc23)NC(=O)[C@@H]2CCCN2C(=O)[C@H](Cc2ccccc2)NC(=O)[C@H](CCSC)NC(=O)[C@H](CCCNC(=N)N)NC1=O (H-GDRYTCSPIRMFPWWRCDLGDPEGGGKAPRRAR-OH; disulfide 6-17) |  | 22.5 | Active |  |  |  |  | 
CC(C)C[C@@H]1NC(=O)[C@H](C)NC(=O)[C@H](CCCNC(=N)N)NC(=O)[C@@H](NC(=O)[C@@H]2CCCN2C(=O)[C@H](CO)NC(=O)[C@H](Cc2ccc(O)cc2)NC(=O)[C@H](CC(=O)O)NC(=O)CN)CSSC[C@@H](C(=O)N2CCC[C@H]2C(=O)N[C@@H](CO)C(=O)NCC(=O)N[C@@H](CC(=O)O)C(=O)N2CCC[C@H]2C(=O)N[C@@H](CCC(=O)O)C(=O)NCC(=O)NCC(=O)NCC(=O)N[C@@H](CCCNC(=N)N)C(=O)NCC(=O)N[C@@H](CCCNC(=N)N)C(=O)N[C@@H](CCCNC(=N)N)C(=O)N2CCC[C@H]2C(=O)N2CCC[C@H]2C(=O)N[C@@H](CCCNC(=N)N)C(=O)O)NC(=O)[C@H](CCCNC(=N)N)NC(=O)[C@H](Cc2c[nH]c3ccccc23)NC(=O)[C@H](Cc2c[nH]c3ccccc23)NC(=O)[C@@H]2CCCN2C(=O)[C@H](CO)NC(=O)[C@H](Cc2cnc[nH]2)NC(=O)[C@H](CCCNC(=N)N)NC1=O (H-GDYSPCRALRHSPWWRCPSGDPEGGGRGRRPPR-OH; disulfide 6-17) |  | 76.3 | Active |  |  |  |  | 
